Experimental data published in patent US20030073872A1, “Hexameric complexes and their preparation” (priority 2001, published 2003).

Experiment: NMR check of guest exchange in a sealed tube heated to 150° C.
Format: physicochemical
Conditions: sealed NMR tube heated to 150° C., about 1.4 atmospheres, d^6-acetone
Description: Nuclear magnetic resonance (NMR) spectroscopic investigations were carried out to verify the existence of the spheroidal hexamer in solution. […] FIG. […] The enlarged inset in FIG. 3 is the region of the spectrum displaying the methanol resonances. The peak assignments a, b, and c in the enlarged inset are for diaryl C—H, CH3 of the methanol guest, and CH3 of the methanol in the bulk solvent, respectively. Peak assignments d, e, and f are for the CH2 moiety adjacent to CH in the bridging group, the remaining CH2 groups, and the terminal CH3 group, respectively, on the R substituent. Peak g is the TMS internal standard.
The most significant features in the spectrum of FIG. 3 are the two methanol peaks, b and c, indicating, respectively, the methanol trapped within the hexameric spheroidal assembly and the methanol in the bulk solvent. Similar work was carried out in d^6-acetone, d^6-dimethyl sulfoxide, and d^8-toluene.

stability of guest/host assembly (methanol guest does not exchange with bulk solvent): stable
Substance: C-tridecylpyrogallol(4)arene
